Data as given in EP4603105A1, “PHARMACEUTICAL COMPOSITION CONTAINING CYCLIC COMPOUND HAVING SELECTIVE KRAS INHIBITORY EFFECT AGAINST HRAS AND NRAS” (CHUGAI SEIYAKU KABUSHIKI KAISHA, priority 2022, dated 2024).

Assays:
[1] = target: GDP-bound NRAS wild-type protein (Homo sapiens, UniProt P01111); assay: Binding to NRAS by surface plasmon resonance (SPR), KD and KD ratio to KRAS; conditions: ratio of the KD value with respect to GDP-bound NRAS wild-type protein to the KD value with respect to KRAS
How it was run: (§1)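 Recombinant RAS proteins bearing a biotinylated Avi tag and loaded with GDP served as the captured ligand, recaptured fresh every cycle. Binding responses were referenced to an uncoated surface and a buffer-only blank cycle. Dissociation constants were obtained by 1:1 model fitting at 30°C.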

[2] = target: HRAS wild-type protein (Homo sapiens, UniProt P01112); assay: Binding to HRAS by surface plasmon resonance (SPR), KD and KD ratio to KRAS; conditions: ratio of the KD value with respect to HRAS wild-type protein to the KD value with respect to KRAS
How it was run: as §1

[3] = test system: human lung cancer strain NCI-H441; format: cell-based
How it was run: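 Signal came from […] measured per well once the reagent was added. Beforehand, cells were cultured at 37°C and 5% carbon dioxide on a compound series serially diluted in dimethyl sulfoxide.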

HRAS wild-type protein, sequence (P01112 whole entry): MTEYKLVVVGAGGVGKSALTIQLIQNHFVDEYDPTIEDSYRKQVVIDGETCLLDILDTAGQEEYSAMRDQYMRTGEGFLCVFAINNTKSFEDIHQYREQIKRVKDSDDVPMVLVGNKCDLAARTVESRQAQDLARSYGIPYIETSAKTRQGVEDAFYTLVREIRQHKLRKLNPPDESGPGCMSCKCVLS
GDP-bound NRAS wild-type protein, sequence (P01111 whole entry): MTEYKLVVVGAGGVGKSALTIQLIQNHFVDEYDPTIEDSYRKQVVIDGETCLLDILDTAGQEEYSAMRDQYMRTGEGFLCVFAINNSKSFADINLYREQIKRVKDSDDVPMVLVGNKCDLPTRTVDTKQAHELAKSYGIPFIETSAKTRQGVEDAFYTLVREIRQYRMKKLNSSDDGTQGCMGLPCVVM

SMILES	NRAS /KRAS [1]	HRAS /KRAS [2]	IC50 [3] [nM]
CCO[C@@H]1C[C@H]2C(=O)NC3(CCC3)C(=O)N(C)[C@@H](C3CCCC3)C(=O)N(CCc3ccccc3)[C@H](C(=O)N(C)C)CC(=O)N(C)[C@@H](CC)C(=O)N[C@@H]([C@@H](C)CC)C(=O)N(C)CC(=O)N(C)[C@H]3CCCCCN(C3=O)[C@@H](Cc3ccc(C(F)(F)F)cc3)C(=O)N(C)CC(=O)N[C@@H](CCc3cc(F)c(C(F)(F)F)c(F)c3)C(=O)N2C1 [PP0637]	B (a compound having 3 or more and less than 10 is denoted as B)	B (a compound having 3 or more and less than 10 is denoted as B)	952
CCCN1C(=O)[C@H](C2CCCC2)N(C)C(=O)C2(CCC2)NC(=O)[C@@H]2C[C@@H](OCC)CN2C(=O)[C@H](CCc2cc(F)c(C(F)(F)F)c(F)c2)NC(=O)CN(C)C(=O)[C@H](Cc2ccc(C(F)(F)F)cc2)N2CCCCC[C@@H](C2=O)N(C)C(=O)CN(C)C(=O)[C@H]([C@@H](C)CC)NC(=O)[C@H](CC(C)C)N(C)C(=O)C[C@H]1C(=O)N1CCOCC1 [PP0639]	B (a compound having 3 or more and less than 10 is denoted as B)	B (a compound having 3 or more and less than 10 is denoted as B)	631
CCO[C@@H]1C[C@H]2C(=O)NC3(CCC3)C(=O)N(C)[C@@H](C3CCCC3)C(=O)N(CC)[C@H](C(=O)N(C)C)CC(=O)N(C)[C@@H](CC)C(=O)N[C@@H]([C@@H](C)CC)C(=O)N(C)CC(=O)N(C)[C@H]3CCCCN(C3=O)[C@@H](Cc3ccc(C(F)(F)F)cc3)C(=O)N(C)CC(=O)N[C@@H](CCc3cc(F)c(C(F)(F)F)c(F)c3)C(=O)N2C1 [PP0643]	C (A compound having a KD ratio of 0.1 or more and less than 3 is denoted as C)	B (a compound having 3 or more and less than 10 is denoted as B)	6.5
CCO[C@@H]1C[C@H]2C(=O)NC3(CCC3)C(=O)N(C)[C@@H](C3CCCC3)C(=O)N(CCC3CCC3)[C@H](C(=O)N(C)C)CC(=O)N(C)[C@@H](CC)C(=O)N[C@@H]([C@@H](C)CC)C(=O)N(C)CC(=O)N(C)[C@H]3CCCCN(C3=O)[C@@H](Cc3ccc(C(F)(F)F)cc3)C(=O)N(C)CC(=O)N[C@@H](CCc3cc(F)c(C(F)(F)F)c(F)c3)C(=O)N2C1 [PP0645]	B (a compound having 3 or more and less than 10 is denoted as B)	B (a compound having 3 or more and less than 10 is denoted as B)	12
CCO[C@@H]1C[C@H]2C(=O)NC3(CCC3)C(=O)N(C)[C@@H](C3CCCC3)C(=O)N(CCc3ccccc3)[C@H](C(=O)N(C)C)CC(=O)N(C)[C@@H](CC)C(=O)N[C@@H]([C@@H](C)CC)C(=O)N(C)CC(=O)N(C)[C@H]3CCCCN(C3=O)[C@@H](Cc3ccc(C(F)(F)F)cc3)C(=O)N(C)CC(=O)N[C@@H](CCc3cc(F)c(C(F)(F)F)c(F)c3)C(=O)N2C1 [PP0647]	C (A compound having a KD ratio of 0.1 or more and less than 3 is denoted as C)	B (a compound having 3 or more and less than 10 is denoted as B)	45
CCO[C@@H]1C[C@H]2C(=O)NC3(CCC3)C(=O)N(C)[C@@H](C3CCCC3)C(=O)N(CC)[C@H](C(=O)N3CCOCC3)CC(=O)N(C)[C@@H](CC(C)C)C(=O)N[C@@H]([C@@H](C)CC)C(=O)N(C)CC(=O)N(C)[C@H]3CCCCN(C3=O)[C@@H](Cc3ccc(C(F)(F)F)cc3)C(=O)N(C)CC(=O)N[C@@H](CCc3cc(F)c(C(F)(F)F)c(F)c3)C(=O)N2C1 [PP0648]	B (a compound having 3 or more and less than 10 is denoted as B)	B (a compound having 3 or more and less than 10 is denoted as B)	20.8
CCCN1C(=O)[C@H](C2CCCC2)N(C)C(=O)C2(CCC2)NC(=O)[C@@H]2C[C@@H](OCC)CN2C(=O)[C@H](CCc2cc(F)c(C(F)(F)F)c(F)c2)NC(=O)CN(C)C(=O)[C@H](Cc2ccc(C(F)(F)F)cc2)N2CCCC[C@@H](C2=O)N(C)C(=O)CN(C)C(=O)[C@H]([C@@H](C)CC)NC(=O)[C@H](CC(C)C)N(C)C(=O)C[C@H]1C(=O)N1CCOCC1 [PP0649]	C (A compound having a KD ratio of 0.1 or more and less than 3 is denoted as C)	B (a compound having 3 or more and less than 10 is denoted as B)	30.2
CCO[C@@H]1C[C@H]2C(=O)NC3(CCC3)C(=O)N(C)[C@@H](C3CCCC3)C(=O)N(CCC3CCC3)[C@H](C(=O)N3CCOCC3)CC(=O)N(C)[C@@H](CC(C)C)C(=O)N[C@@H]([C@@H](C)CC)C(=O)N(C)CC(=O)N(C)[C@H]3CCCCN(C3=O)[C@@H](Cc3ccc(C(F)(F)F)cc3)C(=O)N(C)CC(=O)N[C@@H](CCc3cc(F)c(C(F)(F)F)c(F)c3)C(=O)N2C1 [PP0650]	C (A compound having a KD ratio of 0.1 or more and less than 3 is denoted as C)	B (a compound having 3 or more and less than 10 is denoted as B)	45.7
CCO[C@@H]1C[C@H]2C(=O)NC3(CCC3)C(=O)N(C)[C@@H](C3CCCC3)C(=O)N(CCC3CCCC3)[C@H](C(=O)N3CCOCC3)CC(=O)N(C)[C@@H](CC(C)C)C(=O)N[C@@H]([C@@H](C)CC)C(=O)N(C)CC(=O)N(C)[C@H]3CCCCN(C3=O)[C@@H](Cc3ccc(C(F)(F)F)cc3)C(=O)N(C)CC(=O)N[C@@H](CCc3cc(F)c(C(F)(F)F)c(F)c3)C(=O)N2C1 [PP0651]	B (a compound having 3 or more and less than 10 is denoted as B)	B (a compound having 3 or more and less than 10 is denoted as B)	136
CC[C@H](C)[C@@H]1NC(=O)[C@H](CC)N(C)C(=O)C[C@@H](C(=O)N(C)C)N(C)C(=O)[C@H](C2CCCC2)N(C)C(=O)C2(CCC2)NC(=O)[C@@H]2CCCCN2C(=O)[C@H](CCc2cc(F)c(C(F)(F)F)c(F)c2)NC(=O)CN(C)C(=O)[C@H](Cc2ccc(C(F)(F)F)cc2)N2CCCCC[C@@H](C2=O)N(C)C(=O)CN(C)C1=O [PP0655]	B (a compound having 3 or more and less than 10 is denoted as B)	B (a compound having 3 or more and less than 10 is denoted as B)	125
CC[C@H](C)[C@@H]1NC(=O)[C@H](CC)N(C)C(=O)C[C@@H](C(=O)N(C)C)N(C)C(=O)[C@H](C2CCCC2)N(C)C(=O)C2(CCC2)NC(=O)[C@@H]2C[C@@H](N3CCC(F)(F)CC3)CN2C(=O)[C@H](CCc2cc(F)c(C(F)(F)F)c(F)c2)NC(=O)CN(C)C(=O)[C@H](Cc2ccc(C(F)(F)F)cc2)N2CCCC[C@@H](C2=O)N(C)C(=O)CN(C)C1=O [PP0656]	C (A compound having a KD ratio of 0.1 or more and less than 3 is denoted as C)	C (A compound having a KD ratio of 0.1 or more and less than 3 is denoted as C)	26.5
CC[C@H](C)[C@@H]1NC(=O)[C@H](CC)N(C)C(=O)C[C@@H](C(=O)N(C)C)N(C)C(=O)[C@H](C2CCCC2)N(C)C(=O)C2(CCC2)NC(=O)[C@@H]2CCN2C(=O)[C@H](CCc2cc(F)c(C(F)(F)F)c(F)c2)NC(=O)CN(C)C(=O)[C@H](Cc2ccc(C(F)(F)F)cc2)N2CCCC[C@@H](C2=O)N(C)C(=O)CN(C)C1=O [PP0657]	B (a compound having 3 or more and less than 10 is denoted as B)	B (a compound having 3 or more and less than 10 is denoted as B)	32.9
CC[C@H](C)[C@@H]1NC(=O)[C@H](CC)N(C)C(=O)C[C@@H](C(=O)N(C)C)N(C)C(=O)[C@H](C2CCCC2)N(C)C(=O)C2(CCC2)NC(=O)[C@@H]2CCCCN2C(=O)[C@H](CCc2cc(F)c(C(F)(F)F)c(F)c2)NC(=O)CN(C)C(=O)[C@H](Cc2ccc(C(F)(F)F)cc2)N2CCCC[C@@H](C2=O)N(C)C(=O)CN(C)C1=O [PP0658]	C (A compound having a KD ratio of 0.1 or more and less than 3 is denoted as C)	B (a compound having 3 or more and less than 10 is denoted as B)	10.3
CC[C@H](C)[C@@H]1NC(=O)[C@H](CC)N(C)C(=O)C[C@@H](C(=O)N(C)C)N(CC)C(=O)[C@H](C2CCCC2)N(C)C(=O)C2(CCC2)NC(=O)[C@@H]2C[C@H](N3CCC(F)(F)CC3)CN2C(=O)[C@H](CCc2cc(F)c(C(F)(F)F)c(F)c2)NC(=O)CN(C)C(=O)[C@H](Cc2ccc(C(F)(F)F)cc2)N2CCCC[C@@H](C2=O)N(C)C(=O)CN(C)C1=O [PP0659]	B (a compound having 3 or more and less than 10 is denoted as B)	B (a compound having 3 or more and less than 10 is denoted as B)	184
CC[C@H](C)[C@@H]1NC(=O)[C@H](CC)N(C)C(=O)C[C@@H](C(=O)N(C)C)N(CC)C(=O)[C@H](C2CCCC2)N(C)C(=O)C2(CCC2)NC(=O)[C@@H]2CCN2C(=O)[C@H](CCc2cc(F)c(C(F)(F)F)c(F)c2)NC(=O)CN(C)C(=O)[C@H](Cc2ccc(C(F)(F)F)cc2)N2CCCC[C@@H](C2=O)N(C)C(=O)CN(C)C1=O [PP0660]	B (a compound having 3 or more and less than 10 is denoted as B)	B (a compound having 3 or more and less than 10 is denoted as B)	131
